Source: PubChem BioAssay (NCI)
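Results reflect a 48-hour exposure of cells in 96-well plates to compound at five concentrations. TGI: total growth inhibition.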

What was measured:
Assay in all cases: inhibition of tumour cell growth, NCI panel, 48 h
DLD-1 colon = system: DLD-1 colon
DMS 114 small cell lung = system: DMS 114 small cell lung
EKVX NSCLC = system: EKVX NSCLC
HOP-18 NSCLC = system: HOP-18 NSCLC
KM20L2 colon = system: KM20L2 colon
LXFL 529 NSCLC = system: LXFL 529 NSCLC
M19-MEL melanoma = system: M19-MEL melanoma
RXF-631 renal = system: RXF-631 renal
SF-539 CNS = system: SF-539 CNS
SNB-78 CNS = system: SNB-78 CNS
DMS 273 small cell lung = system: DMS 273 small cell lung
XF 498 CNS = system: XF 498 CNS

C#CCNC(=O)NCCCC(NC(C)=O)C(=O)NCc1ccccc1 (stereo not given)
TGI (DLD-1 colon): > 100 µM | TGI (DMS 114 small cell lung): > 100 µM | TGI (EKVX NSCLC): > 100 µM | TGI (HOP-18 NSCLC): > 100 µM | TGI (KM20L2 colon): > 100 µM | TGI (LXFL 529 NSCLC): > 100 µM | TGI (M19-MEL melanoma): > 100 µM | TGI (RXF-631 renal): > 100 µM | TGI (SF-539 CNS): > 100 µM | TGI (SNB-78 CNS): > 100 µM

CCOc1ccc(NC(=O)C(=O)NO)cc1
TGI (DLD-1 colon): > 100 µM | TGI (DMS 114 small cell lung): > 100 µM | TGI (DMS 273 small cell lung): > 100 µM | TGI (EKVX NSCLC): > 100 µM | TGI (HOP-18 NSCLC): > 100 µM | TGI (KM20L2 colon): > 100 µM | TGI (LXFL 529 NSCLC): > 100 µM | TGI (M19-MEL melanoma): > 100 µM | TGI (SF-539 CNS): > 100 µM | TGI (SNB-78 CNS): > 100 µM

COP(=O)(Cc1ccc(/C=C/C#N)o1)OC
TGI (EKVX NSCLC): > 100 µM | TGI (SF-539 CNS): > 100 µM

COc1ccc(/C=C/c2sc3ccccc3[n+]2CCCCI)cc1OC
TGI (EKVX NSCLC): > 10 µM | TGI (SF-539 CNS): > 10 µM

Nc1cc2c(nnn2C2OC(COCc3ccccc3)C(OCc3ccccc3)C2OCc2ccccc2)c(=O)[nH]1 (stereo not given)
TGI (EKVX NSCLC): 46.1 µM | TGI (SF-539 CNS): 69.5 µM

CC(C)C[C@H](NC(=O)[C@H](Cc1ccccc1)NC(=O)CCc1ccccc1)B(O)O
TGI (EKVX NSCLC): < 0.0216 µM | TGI (SF-539 CNS): < 0.01 µM

CC1=NOC2(C1)C(=O)Nc1ccccc12 (stereo not given)
TGI (EKVX NSCLC): > 100 µM | TGI (SF-539 CNS): > 100 µM

Cc1ccc(S(=O)(=O)n2c3c(c4ccccc42)CCN2C(=O)C(S(=O)(=O)c4ccccc4)=CCC32)cc1 (stereo not given)
TGI (SF-539 CNS): 0.391 µM

CCOCN1COCN=C1NC#N
TGI (DLD-1 colon): > 100 µM | TGI (DMS 114 small cell lung): > 100 µM | TGI (DMS 273 small cell lung): > 100 µM | TGI (EKVX NSCLC): > 100 µM | TGI (HOP-18 NSCLC): > 100 µM | TGI (KM20L2 colon): > 100 µM | TGI (LXFL 529 NSCLC): > 100 µM | TGI (RXF-631 renal): > 100 µM | TGI (SF-539 CNS): > 100 µM | TGI (SNB-78 CNS): > 100 µM | TGI (XF 498 CNS): > 100 µM

CCOC(=O)[C@]12C(=C(c3ccccc3)O[C@H]3C=CCC[C@H]31)C(=O)C(=O)N2c1ccccc1
TGI (SF-539 CNS): > 100 µM

CCCCCCCc1cc(OC(=O)c2c(C)cc(OC)cc2O)cc(O)c1C(=O)O
TGI (DLD-1 colon): 34.7 µM | TGI (DMS 273 small cell lung): 87.9 µM | TGI (EKVX NSCLC): 77 µM | TGI (KM20L2 colon): 40.3 µM | TGI (LXFL 529 NSCLC): 34 µM | TGI (M19-MEL melanoma): 50.7 µM | TGI (RXF-631 renal): 63.9 µM | TGI (SF-539 CNS): 32.6 µM | TGI (SNB-78 CNS): > 100 µM

COC(=O)c1cc2c3c(cc(N(C)C)c2[nH]1)N(C(=O)c1cc2cc(OC)c(OC)c(OC)c2[nH]1)CC3CCl (stereo not given)
TGI (EKVX NSCLC): 2.79 µM

CN(C)Cc1cc(N=Nc2cccc(Cl)c2)ccc1O
TGI (SF-539 CNS): 33 µM

O=C(NCCCCN(CCCNC(=O)C(F)(F)F)Cc1ccc2ccccc2c1)C(F)(F)F
TGI (EKVX NSCLC): 35.8 µM | TGI (SF-539 CNS): 29.8 µM

COc1cc2c(c(O)c1OC)C(O)C1CCC(=O)N1C2c1cccc2ccccc12 (stereo not given)
TGI (EKVX NSCLC): > 100 µM | TGI (SF-539 CNS): > 100 µM

O=C1N(c2ccccc2)C2(c3ccccc3)CC3CCCC13S2 (stereo not given)
TGI (EKVX NSCLC): > 100 µM | TGI (SF-539 CNS): > 100 µM

OC1(c2ccc(Cl)cc2)c2c(ccc3c2OCO3)C2=NCCN21 (stereo not given)
TGI (EKVX NSCLC): > 100 µM | TGI (SF-539 CNS): > 100 µM

O=C(c1ccco1)N(Cc1ccco1)C(=S)Nc1ccccc1
TGI (EKVX NSCLC): > 96.5 µM | TGI (SF-539 CNS): 15.4 µM

Cc1ccc(Cc2n[nH]c(=O)n2/N=C\CC/C=N\n2c(Cc3ccc(C)cc3)n[nH]c2=O)cc1
TGI (EKVX NSCLC): > 100 µM | TGI (SF-539 CNS): 24.9 µM

O=S(=O)(N/N=C1\CC2CCC1C2)c1ccccc1 (stereo not given)
TGI (EKVX NSCLC): > 100 µM

Cc1cc(NS(=O)(=O)c2ccc(NC(=O)c3ccc4[nH]c5ccccc5c(=O)c4c3)cc2)no1
TGI (EKVX NSCLC): > 100 µM | TGI (SF-539 CNS): > 100 µM

COc1cc(/C=N/n2c(Cc3ccc(Cl)cc3)n[nH]c2=O)cc(OC)c1OC
TGI (EKVX NSCLC): > 100 µM | TGI (SF-539 CNS): > 100 µM

Cc1ccc(N=NC2S/C(=C(\C#N)c3nc4ccccc4[nH]3)N(c3ccccc3)C2=O)cc1 (stereo not given)
TGI (DLD-1 colon): > 100 µM | TGI (DMS 114 small cell lung): > 100 µM | TGI (DMS 273 small cell lung): > 100 µM | TGI (EKVX NSCLC): > 100 µM | TGI (KM20L2 colon): > 100 µM | TGI (LXFL 529 NSCLC): > 100 µM | TGI (M19-MEL melanoma): > 100 µM | TGI (SF-539 CNS): > 100 µM | TGI (SNB-78 CNS): > 100 µM | TGI (XF 498 CNS): > 100 µM

CC(=O)c1c(SCCN2CCCC2)n(-c2ccccc2)c(=S)n(-c2ccccc2)c1=O
TGI (EKVX NSCLC): 37.3 µM | TGI (SF-539 CNS): 12.5 µM

Cn1c(N)c(C(N)=O)[nH]c1=S
TGI (EKVX NSCLC): > 100 µM | TGI (SF-539 CNS): > 100 µM

CC(C)(C)n1c(=O)[nH]n(C2NN=Cc3cccc4cccc2c34)c1=O (stereo not given)
TGI (EKVX NSCLC): 68.8 µM | TGI (SF-539 CNS): 45.1 µM

COc1ccc(N(CN2C(=O)CCC2C(=O)O)C(C)=O)cc1 (stereo not given)
TGI (EKVX NSCLC): > 100 µM | TGI (SF-539 CNS): > 100 µM

CN(C)c1ccc(/C=C(\NC(=O)c2ccccc2)C(=O)NCC(=O)O)cc1
TGI (EKVX NSCLC): > 100 µM | TGI (SF-539 CNS): > 100 µM

O=c1[nH]cnc2c1sc1nc3ccccc3n12
TGI (EKVX NSCLC): > 100 µM | TGI (SF-539 CNS): > 100 µM

O=Cc1c2ccccc2n2ccc3c4ccccc4[nH]c3c12
TGI (EKVX NSCLC): > 10 µM | TGI (SF-539 CNS): > 10 µM

Cn1c(-c2cccs2)cc(-c2ccccc2)c1-c1cccs1
TGI (EKVX NSCLC): > 100 µM | TGI (SF-539 CNS): > 100 µM

n1onc2c1NC1Nc3nonc3NC1N2 (stereo not given)
TGI (EKVX NSCLC): > 100 µM | TGI (SF-539 CNS): > 100 µM

O=C1[C@@H]2C(c3ccc(Cl)cc3Cl)=NO[C@@H]2C(=O)N1c1ccc(Cc2ccc(N3C(=O)[C@H]4C(c5ccc(Cl)cc5Cl)=NO[C@H]4C3=O)cc2)cc1
TGI (DLD-1 colon): > 100 µM | TGI (DMS 114 small cell lung): > 100 µM | TGI (DMS 273 small cell lung): > 100 µM | TGI (EKVX NSCLC): > 100 µM | TGI (HOP-18 NSCLC): > 100 µM | TGI (KM20L2 colon): > 100 µM | TGI (LXFL 529 NSCLC): 52.2 µM | TGI (M19-MEL melanoma): > 100 µM | TGI (SF-539 CNS): > 100 µM | TGI (SNB-78 CNS): > 100 µM | TGI (XF 498 CNS): > 100 µM

O=C1CS(=O)(=O)C(c2cccc(Oc3ccccc3)c2)N1c1cccc(Cl)c1 (stereo not given)
TGI (EKVX NSCLC): 61.9 µM | TGI (SF-539 CNS): 37.4 µM

N#Cc1n[nH]n(C2CCCCC2)c1=O
TGI (EKVX NSCLC): > 100 µM | TGI (SF-539 CNS): > 100 µM

COc1ccc(/C(Cl)=C(/c2ccc(O)cc2)c2ccc(OCCN(C)C)cc2)cc1
TGI (DLD-1 colon): 31 µM | TGI (DMS 114 small cell lung): 19.3 µM | TGI (DMS 273 small cell lung): 23.6 µM | TGI (EKVX NSCLC): 30.3 µM | TGI (HOP-18 NSCLC): 25 µM | TGI (KM20L2 colon): 11.7 µM | TGI (LXFL 529 NSCLC): 22.6 µM | TGI (M19-MEL melanoma): 18.9 µM | TGI (RXF-631 renal): 36.7 µM | TGI (SF-539 CNS): 23.8 µM | TGI (SNB-78 CNS): 29.3 µM | TGI (XF 498 CNS): 10.3 µM

CN(C)c1nc2oc(-c3ccccc3)c(-c3ccccc3)c2c2nncn12
TGI (EKVX NSCLC): > 100 µM | TGI (SF-539 CNS): > 100 µM

CCOc1ccc(Nc2nc3c(s2)C(=O)c2ccccc2C3=O)cc1
TGI (EKVX NSCLC): 50.4 µM | TGI (SF-539 CNS): 35.7 µM
